According to patent publication US9751926B2 (priority 2013, dated 2017):
≈ marks a conversion by molar mass, not a printed value. Non-standard residues stand in square brackets, D forms with d. Residues, ends and D or L forms follow the SMILES beside them. Met(O2) = CS(=O)(=O)CC[C@H](N)C(=O)O; Aib = CC(C)(N)C(=O)O

How the values were obtained:
human glucagon receptor = target: T1, human glucagon receptor (Homo sapiens, UniProt P47871); test: cAMP response (HTRF) of HEK-293 cells stably expressing human glucagon receptor; assay type: cell-based; details: Table 6; formed cAMP; read-out: EC50 hGLUC R
T1 construct: expressed in transfected cells
T1 sequence (P47871 26-477): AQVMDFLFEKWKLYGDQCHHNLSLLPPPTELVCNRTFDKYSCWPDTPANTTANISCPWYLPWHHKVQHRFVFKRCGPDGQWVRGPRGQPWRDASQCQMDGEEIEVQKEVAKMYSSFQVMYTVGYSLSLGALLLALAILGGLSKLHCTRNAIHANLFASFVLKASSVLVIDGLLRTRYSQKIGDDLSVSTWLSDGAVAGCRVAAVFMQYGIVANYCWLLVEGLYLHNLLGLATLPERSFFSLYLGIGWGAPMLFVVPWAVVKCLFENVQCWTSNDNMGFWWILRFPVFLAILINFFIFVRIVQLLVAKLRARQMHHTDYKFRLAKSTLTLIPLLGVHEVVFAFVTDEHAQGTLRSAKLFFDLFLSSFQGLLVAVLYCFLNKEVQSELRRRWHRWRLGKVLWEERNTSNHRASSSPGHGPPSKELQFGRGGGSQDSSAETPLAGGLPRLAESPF
Description: (§1) cAMP content of cells was determined using a kit from Cisbio Corp. (cat. no. 62AM4PEC) based on HTRF (Homogenous Time Resolved Fluorescence). For preparation, cells were split into T175 culture flasks and grown overnight to near confluency in medium (DMEM/10% FBS). Medium was then removed and cells washed with PBS lacking calcium and magnesium, followed by proteinase treatment with accutase (Sigma-Aldrich cat. no. A6964). Detached cells were washed and resuspended in assay buffer (1×HBSS; 20 mM HEPES, 0.1% BSA, 2 mM IBMX) and cellular density determined. They were then diluted to 400000 cells/ml and 25 μl-aliquots dispensed into the wells of 96-well plates. For measurement, 25 μl of test compound in assay buffer was added to the wells, followed by incubation for 30 minutes at room temperature.

human GLP-1 receptor = target: T2, human GLP-1 receptor (Homo sapiens, UniProt P43220); test: cAMP response (HTRF) of HEK-293 cells stably expressing human GLP-1 receptor; assay type: cell-based; details: Table 6; formed cAMP; read-out: EC50 hGLP-1 R
T2 construct: expressed in transfected cells
T2 sequence (P43220 24-463): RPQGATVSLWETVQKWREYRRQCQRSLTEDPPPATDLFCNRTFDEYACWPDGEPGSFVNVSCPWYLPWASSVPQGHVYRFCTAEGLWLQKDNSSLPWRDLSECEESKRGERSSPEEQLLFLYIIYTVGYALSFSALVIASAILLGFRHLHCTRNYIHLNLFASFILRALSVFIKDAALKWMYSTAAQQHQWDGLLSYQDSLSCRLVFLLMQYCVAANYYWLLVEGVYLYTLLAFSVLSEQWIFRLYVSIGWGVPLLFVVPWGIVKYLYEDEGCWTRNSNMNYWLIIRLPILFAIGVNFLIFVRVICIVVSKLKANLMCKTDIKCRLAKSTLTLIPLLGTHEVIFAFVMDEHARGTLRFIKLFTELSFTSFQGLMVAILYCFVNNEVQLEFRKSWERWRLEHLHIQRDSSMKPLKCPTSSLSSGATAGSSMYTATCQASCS
Description: as §1

physchem = assay type: physicochemical

Row | Compound | EC50 (human glucagon receptor) [nM] | EC50 (human GLP-1 receptor) [nM] | solubility at 2 h (physchem; pH 4.5) [µg/mL] | solubility at 2 h (physchem; pH 7.4) [µg/mL]
1 | CC[C@H](C)[C@H](NC(=O)[C@H](CO)NC(=O)[C@H](CC(C)C)NC(=O)[C@H](CC(=O)O)NC(=O)[C@H](CO)NC(=O)[C@@H](NC(=O)[C@H](Cc1ccccc1)NC(=O)[C@@H](NC(=O)CNC(=O)[C@H](CCC(=O)O)NC(=O)C(C)(C)NC(=O)[C@@H](N)Cc1ccc(O)cc1)[C@@H](C)O)[C@@H](C)O)C(=O)N[C@@H](CCC(N)=O)C(=O)N[C@@H](CCSC)C(=O)N[C@@H](CCC(=O)O)C(=O)N[C@@H](CCCCN)C(=O)N[C@@H](CCC(=O)O)C(=O)N[C@@H](C)C(=O)N[C@H](C(=O)N[C@@H](CCCNC(=N)N)C(=O)N[C@@H](CC(C)C)C(=O)N[C@@H](Cc1ccccc1)C(=O)N[C@H](C(=O)N[C@@H](CCC(=O)O)C(=O)N[C@@H](Cc1c[nH]c2ccccc12)C(=O)N[C@@H](CC(C)C)C(=O)N[C@@H](CCCCN)C(=O)N[C@@H](C)C(=O)NCC(=O)NCC(=O)N1CCC[C@H]1C(=O)N[C@@H](CO)C(=O)N[C@@H](CO)C(=O)NCC(=O)N[C@@H](C)C(=O)N1CCC[C@H]1C(=O)N1CCC[C@H]1C(=O)N1CCC[C@H]1C(=O)N[C@@H](CO)C(N)=O)[C@@H](C)CC)C(C)C [compound 9] (H-Y[Aib]EGTFTSDLSIQMEKEAVRLFIEWLKAGGPSSGAPPPS-NH2) | > 1000 | 0.0011 | – | –
2 | CC[C@H](C)[C@H](NC(=O)[C@H](CO)NC(=O)[C@H](CC(C)C)NC(=O)[C@H](CC(=O)O)NC(=O)[C@H](CO)NC(=O)[C@@H](NC(=O)[C@H](Cc1ccccc1)NC(=O)[C@@H](NC(=O)CNC(=O)[C@H](CCC(=O)O)NC(=O)C(C)(C)NC(=O)[C@@H](N)Cc1ccc(O)cc1)[C@@H](C)O)[C@@H](C)O)C(=O)N[C@@H](CCC(N)=O)C(=O)N[C@@H](CC(C)C)C(=O)N[C@@H](CCC(=O)O)C(=O)N[C@@H](CCCCN)C(=O)N[C@@H](CCC(=O)O)C(=O)N[C@@H](C)C(=O)N[C@H](C(=O)N[C@@H](CCCNC(=N)N)C(=O)N[C@@H](CC(C)C)C(=O)N[C@@H](Cc1ccccc1)C(=O)N[C@H](C(=O)N[C@@H](CCC(=O)O)C(=O)N[C@@H](Cc1c[nH]c2ccccc12)C(=O)N[C@@H](CC(C)C)C(=O)N[C@@H](CCCCN)C(=O)N[C@@H](C)C(=O)NCC(=O)NCC(=O)N1CCC[C@H]1C(=O)N[C@@H](CO)C(=O)N[C@@H](CO)C(=O)NCC(=O)N[C@@H](C)C(=O)N1CCC[C@H]1C(=O)N1CCC[C@H]1C(=O)N1CCC[C@H]1C(=O)N[C@@H](CO)C(N)=O)[C@@H](C)CC)C(C)C [compound 10] | – | 0.0012 | – | –
3 | CCCC[C@H](NC(=O)[C@H](CCC(N)=O)NC(=O)[C@@H](NC(=O)[C@H](CO)NC(=O)[C@H](CC(C)C)NC(=O)[C@H](CC(=O)O)NC(=O)[C@H](CO)NC(=O)[C@@H](NC(=O)[C@H](Cc1ccccc1)NC(=O)[C@@H](NC(=O)CNC(=O)[C@H](CCC(=O)O)NC(=O)C(C)(C)NC(=O)[C@@H](N)Cc1ccc(O)cc1)[C@@H](C)O)[C@@H](C)O)[C@@H](C)CC)C(=O)N[C@@H](CCC(=O)O)C(=O)N[C@@H](CCCCN)C(=O)N[C@@H](CCC(=O)O)C(=O)N[C@@H](C)C(=O)N[C@H](C(=O)N[C@@H](CCCNC(=N)N)C(=O)N[C@@H](CC(C)C)C(=O)N[C@@H](Cc1ccccc1)C(=O)N[C@H](C(=O)N[C@@H](CCC(=O)O)C(=O)N[C@@H](Cc1c[nH]c2ccccc12)C(=O)N[C@@H](CC(C)C)C(=O)N[C@@H](CCCCN)C(=O)N[C@@H](C)C(=O)NCC(=O)NCC(=O)N1CCC[C@H]1C(=O)N[C@@H](CO)C(=O)N[C@@H](CO)C(=O)NCC(=O)N[C@@H](C)C(=O)N1CCC[C@H]1C(=O)N1CCC[C@H]1C(=O)N1CCC[C@H]1C(=O)N[C@@H](CO)C(N)=O)[C@@H](C)CC)C(C)C [compound 11] | > 1000 | 0.001 | 911 (≈ 219 µM) | > 1000
4 | CC[C@H](C)[C@H](NC(=O)[C@H](CO)NC(=O)[C@H](CC(C)C)NC(=O)[C@H](CC(=O)O)NC(=O)[C@H](CO)NC(=O)[C@@H](NC(=O)[C@H](Cc1ccccc1)NC(=O)[C@@H](NC(=O)CNC(=O)[C@H](CCC(=O)O)NC(=O)C(C)(C)NC(=O)[C@@H](N)Cc1ccc(O)cc1)[C@@H](C)O)[C@@H](C)O)C(=O)N[C@@H](CCC(N)=O)C(=O)N[C@@H](CCS(C)(=O)=O)C(=O)N[C@@H](CCC(=O)O)C(=O)N[C@@H](CCCCN)C(=O)N[C@@H](CCC(=O)O)C(=O)N[C@@H](C)C(=O)N[C@H](C(=O)N[C@@H](CCCNC(=N)N)C(=O)N[C@@H](CC(C)C)C(=O)N[C@@H](Cc1ccccc1)C(=O)N[C@H](C(=O)N[C@@H](CCC(=O)O)C(=O)N[C@@H](Cc1c[nH]c2ccccc12)C(=O)N[C@@H](CC(C)C)C(=O)N[C@@H](CCCCN)C(=O)N[C@@H](C)C(=O)NCC(=O)NCC(=O)N1CCC[C@H]1C(=O)N[C@@H](CO)C(=O)N[C@@H](CO)C(=O)NCC(=O)N[C@@H](C)C(=O)N1CCC[C@H]1C(=O)N1CCC[C@H]1C(=O)N1CCC[C@H]1C(=O)N[C@@H](CO)C(N)=O)[C@@H](C)CC)C(C)C [compound 14] (H-Y[Aib]EGTFTSDLSIQ[Met(O2)]EKEAVRLFIEWLKAGGPSSGAPPPS-NH2) | > 1000 | – | > 1000 | > 1000
5 | CC[C@H](C)[C@H](NC(=O)[C@H](CO)NC(=O)[C@H](CC(C)C)NC(=O)[C@H](CC(=O)O)NC(=O)[C@H](CO)NC(=O)[C@@H](NC(=O)[C@H](Cc1ccccc1)NC(=O)[C@@H](NC(=O)CNC(=O)[C@H](CCC(=O)O)NC(=O)C(C)(C)NC(=O)[C@@H](N)Cc1ccc(O)cc1)[C@@H](C)O)[C@@H](C)O)C(=O)N[C@@H](CCC(N)=O)C(=O)N[C@@H](CC(C)C)C(=O)N[C@@H](CCC(=O)O)C(=O)N[C@@H](CCC(=O)O)C(=O)N[C@@H](CCC(=O)O)C(=O)N[C@@H](C)C(=O)N[C@H](C(=O)NC(C)(C)C(=O)N[C@@H](CC(C)C)C(=O)N[C@@H](Cc1ccccc1)C(=O)N[C@H](C(=O)N[C@@H](CCC(=O)O)C(=O)N[C@@H](Cc1c[nH]c2ccccc12)C(=O)N[C@@H](CC(C)C)C(=O)N[C@@H](CCCCN)C(=O)N[C@@H](C)C(=O)NCC(=O)NCC(=O)N1CCC[C@H]1C(=O)N[C@@H](CO)C(=O)N[C@@H](CO)C(=O)NCC(=O)N[C@@H](C)C(=O)N1CCC[C@H]1C(=O)N1CCC[C@H]1C(=O)N1CCC[C@H]1C(=O)N[C@@H](CO)C(N)=O)[C@@H](C)CC)C(C)C [compound 16] | > 1000 | 0.001 | – | –
6 | CC[C@H](C)[C@H](NC(=O)[C@H](CO)NC(=O)[C@H](CC(C)C)NC(=O)[C@H](CC(=O)O)NC(=O)[C@H](CO)NC(=O)[C@@H](NC(=O)[C@H](Cc1ccccc1)NC(=O)[C@@H](NC(=O)CNC(=O)[C@H](CCC(=O)O)NC(=O)C(C)(C)NC(=O)[C@@H](N)Cc1ccc(O)cc1)[C@@H](C)O)[C@@H](C)O)C(=O)N[C@@H](CCC(N)=O)C(=O)N[C@@H](CC(C)C)C(=O)N[C@@H](CCC(=O)O)C(=O)N[C@@H](CCC(=O)O)C(=O)N[C@@H](CCC(=O)O)C(=O)N[C@@H](C)C(=O)N[C@H](C(=O)N[C@@](C)(CCCCN)C(=O)N[C@@H](CC(C)C)C(=O)N[C@@H](Cc1ccccc1)C(=O)N[C@H](C(=O)N[C@@H](CCC(=O)O)C(=O)N[C@@H](Cc1c[nH]c2ccccc12)C(=O)N[C@@H](CC(C)C)C(=O)N[C@@H](CCCCN)C(=O)N[C@@H](C)C(=O)NCC(=O)NCC(=O)N1CCC[C@H]1C(=O)N[C@@H](CO)C(=O)N[C@@H](CO)C(=O)NCC(=O)N[C@@H](C)C(=O)N1CCC[C@H]1C(=O)N1CCC[C@H]1C(=O)N1CCC[C@H]1C(=O)N[C@@H](CO)C(N)=O)[C@@H](C)CC)C(C)C [compound 17] | > 1000 | 0.0011 | – | –
7 | CC[C@H](C)[C@H](NC(=O)[C@H](CO)NC(=O)[C@H](CC(C)C)NC(=O)[C@H](CC(=O)O)NC(=O)[C@H](CO)NC(=O)[C@@H](NC(=O)[C@H](Cc1ccccc1)NC(=O)[C@@H](NC(=O)CNC(=O)[C@H](CCC(=O)O)NC(=O)C(C)(C)NC(=O)[C@@H](N)Cc1ccc(O)cc1)[C@@H](C)O)[C@@H](C)O)C(=O)N[C@@H](CCC(N)=O)C(=O)N[C@@H](CC(C)C)C(=O)N[C@@H](CCC(=O)O)C(=O)N[C@@H](CCC(=O)O)C(=O)N[C@@H](CCC(=O)O)C(=O)N[C@@H](C)C(=O)N[C@H](C(=O)N[C@@](C)(CCCN)C(=O)N[C@@H](CC(C)C)C(=O)N[C@@H](Cc1ccccc1)C(=O)N[C@H](C(=O)N[C@@H](CCC(=O)O)C(=O)N[C@@H](Cc1c[nH]c2ccccc12)C(=O)N[C@@H](CC(C)C)C(=O)N[C@@H](CCCCN)C(=O)N[C@@H](C)C(=O)NCC(=O)NCC(=O)N1CCC[C@H]1C(=O)N[C@@H](CO)C(=O)N[C@@H](CO)C(=O)NCC(=O)N[C@@H](C)C(=O)N1CCC[C@H]1C(=O)N1CCC[C@H]1C(=O)N1CCC[C@H]1C(=O)N[C@@H](CO)C(N)=O)[C@@H](C)CC)C(C)C [compound 19] | > 1000 | 0.0012 | – | –
8 | CC[C@H](C)[C@H](NC(=O)[C@H](CO)NC(=O)[C@H](CC(C)C)NC(=O)[C@H](CC(=O)O)NC(=O)[C@H](CO)NC(=O)[C@@H](NC(=O)[C@H](Cc1ccccc1)NC(=O)[C@@H](NC(=O)CNC(=O)[C@H](CCC(=O)O)NC(=O)C(C)(C)NC(=O)[C@@H](N)Cc1ccc(O)cc1)[C@@H](C)O)[C@@H](C)O)C(=O)N[C@@H](CCC(N)=O)C(=O)N[C@@H](CC(C)C)C(=O)N[C@@H](CCC(=O)O)C(=O)N[C@@H](CCCCN)C(=O)N[C@@H](CCC(=O)O)C(=O)N[C@@H](C)C(=O)N[C@H](C(=O)N[C@@H](CCCNC(=N)N)C(=O)N[C@@H](CC(C)C)C(=O)N[C@@H](Cc1ccccc1)C(=O)N[C@H](C(=O)N[C@@H](CCC(=O)O)C(=O)N[C@@H](Cc1c[nH]c2ccccc12)C(=O)N[C@@H](CC(C)C)C(=O)N[C@@H](CCCCN)C(=O)N[C@@H](C)C(=O)NCC(=O)NCC(=O)N1CCC[C@H]1C(=O)N[C@@H](CO)C(=O)N[C@@H](CO)C(=O)NCC(=O)N[C@@H](C)C(=O)N1CCC[C@H]1C(=O)N1CCC[C@H]1C(=O)N1CCC[C@H]1C(=O)N[C@@H](CO)C(N)=O)[C@@H](C)CC)C(C)C [compound 20] | > 1000 | 0.001 | – | –
